In ChEMBL document CHEMBL2010711, “Synthesis and comparative evaluation of 4-oxa- and 4-aza-podophyllotoxins as antiproliferative microtubule destabilizing agents” (Bioorg Med Chem Lett, 2012):
The source made the active and inactive calls.

Experiments:
UACC-62 = assay: Cytotoxicity against human UACC62 cells after 48 hrs by trypan blue dye exclusion assay; assay type: functional; settings: UACC-62, 48 h
NCI/ADR-RES = assay: Cytotoxicity against human NCI/ADR-RES cells after 48 hrs by trypan blue dye exclusion assay; assay type: functional
KM12 = assay: Cytotoxicity against human KM12 cells after 48 hrs by trypan blue dye exclusion assay; assay type: functional; settings: KM12, 48 h
OVCAR-8 = assay: Cytotoxicity against human OVCAR8 cells after 48 hrs by trypan blue dye exclusion assay; assay type: functional; settings: OVCAR-8, 48 h
HOP-92 = assay: Cytotoxicity against human HOP92 cells after 48 hrs by trypan blue dye exclusion assay; assay type: functional; settings: HOP-92, 48 h
OVCAR-4 = assay: Cytotoxicity against human OVCAR4 cells after 48 hrs by trypan blue dye exclusion assay; assay type: functional; settings: OVCAR-4, 48 h
Malme-3M = assay: Cytotoxicity against human MALME-3M cells after 48 hrs by trypan blue dye exclusion assay; assay type: functional
SR = assay: Cytotoxicity against human SR cells after 48 hrs by trypan blue dye exclusion assay; assay type: functional
SK-MEL-28 = assay: Cytotoxicity against human SK-MEL-28 cells after 48 hrs by trypan blue dye exclusion assay; assay type: functional; settings: SK-MEL-28, 48 h
SN12C = assay: Cytotoxicity against human SN12C cells after 48 hrs by trypan blue dye exclusion assay; assay type: functional
HT-29 = assay: Cytotoxicity against human HT-29 cells after 48 hrs by trypan blue dye exclusion assay; assay type: functional; settings: HT-29, 48 h
ACHN = assay: Cytotoxicity against human ACHN cells after 48 hrs by trypan blue dye exclusion assay; assay type: functional
SNB-75 = assay: Cytotoxicity against human SNB75 cells after 48 hrs by trypan blue dye exclusion assay; assay type: functional; settings: SNB-75, 48 h
IGROV-1 = assay: Cytotoxicity against human IGROV1 cells after 48 hrs by trypan blue dye exclusion assay; assay type: functional; settings: IGROV-1, 48 h
HL-60(TB) = assay: Cytotoxicity against human HL-60(TB) cells after 48 hrs by trypan blue dye exclusion assay; assay type: functional; settings: HL-60, 48 h
MCF7 = assay: Cytotoxicity against human MCF7 cells after 48 hrs by trypan blue dye exclusion assay; assay type: functional; settings: MCF7, 48 h
A549 = assay: Cytotoxicity against human A549 cells after 48 hrs by trypan blue dye exclusion assay; assay type: functional; settings: A549, 48 h
OVCAR-5 = assay: Cytotoxicity against human OVCAR5 cells after 48 hrs by trypan blue dye exclusion assay; assay type: functional; settings: OVCAR-5, 48 h
SF-268 = assay: Cytotoxicity against human SF268 cells after 48 hrs by trypan blue dye exclusion assay; assay type: functional; settings: SF-268, 48 h
RXF 393 = assay: Cytotoxicity against human RXF393 cells after 48 hrs by trypan blue dye exclusion assay; assay type: functional; settings: RXF 393, 48 h
SK-MEL-2 = assay: Cytotoxicity against human SK-MEL-2 cells after 48 hrs by trypan blue dye exclusion assay; assay type: functional; settings: SK-MEL-2, 48 h
SK-MEL-5 = assay: Cytotoxicity against human SK-MEL-5 cells after 48 hrs by trypan blue dye exclusion assay; assay type: functional; settings: SK-MEL-5, 48 h
RPMI-8226 = assay: Cytotoxicity against human RPMI8226 cells after 48 hrs by trypan blue dye exclusion assay; assay type: functional; settings: RPMI-8226, 48 h
Paracentrotus lividus [1] = assay: Antimitotic activity against Paracentrotus lividus embryo assessed as cleavage alteration at 2 fold less effective threshold concentration after 2.5 to 6 hrs; assay type: functional, organism-based
BT-549 = assay: Cytotoxicity against human BT549 cells after 48 hrs by trypan blue dye exclusion assay; assay type: functional; settings: BT-549, 48 h
NCI-H23 = assay: Cytotoxicity against human NCI-H23 cells after 48 hrs by trypan blue dye exclusion assay; assay type: functional; settings: NCI-H23, 48 h
OVCAR-3 = assay: Cytotoxicity against human OVCAR3 cells after 48 hrs by trypan blue dye exclusion assay; assay type: functional; settings: OVCAR-3, 48 h
Paracentrotus lividus [2] = assay: Antimitotic activity against Paracentrotus lividus embryo assessed as cleavage arrest at 2 fold less effective threshold concentration after 2.5 to 6 hrs; assay type: functional, organism-based
SF-295 = assay: Cytotoxicity against human SF295 cells after 48 hrs by trypan blue dye exclusion assay; assay type: functional; settings: SF-295, 48 h
CAKI-1 = assay: Cytotoxicity against human CAKI-1 cells after 48 hrs by trypan blue dye exclusion assay; assay type: functional; settings: CAKI-1, 48 h
A498 = assay: Cytotoxicity against human A498 cells after 48 hrs by trypan blue dye exclusion assay; assay type: functional; settings: A498, 48 h
DU-145 = assay: Cytotoxicity against human DU145 cells after 48 hrs by trypan blue dye exclusion assay; assay type: functional; settings: DU-145, 48 h
NCI-H226 = assay: Cytotoxicity against human NCI-H226 cells after 48 hrs by trypan blue dye exclusion assay; assay type: functional; settings: NCI-H226, 48 h
SNB-19 = assay: Cytotoxicity against human SNB19 cells after 48 hrs by trypan blue dye exclusion assay; assay type: functional; settings: SNB-19, 48 h
SK-OV-3 = assay: Cytotoxicity against human SKOV3 cells after 48 hrs by trypan blue dye exclusion assay; assay type: functional; settings: SK-OV-3, 48 h
NCI-H522 = assay: Cytotoxicity against human NCI-H522 cells after 48 hrs by trypan blue dye exclusion assay; assay type: functional; settings: NCI-H522, 48 h
UO-31 = assay: Cytotoxicity against human UO31 cells after 48 hrs by trypan blue dye exclusion assay; assay type: functional; settings: UO-31, 48 h
Paracentrotus lividus [3] = assay: Microtubule destabilizing activity in Paracentrotus lividus embryo assessed as embryo spinning at 2 fold less effective threshold concentration after 15 mins to 20 hrs; assay type: functional, organism-based
MOLT-4 = assay: Cytotoxicity against human MOLT4 cells after 48 hrs by trypan blue dye exclusion assay; assay type: functional; settings: MOLT-4, 48 h
U-251 = assay: Cytotoxicity against human U251 cells after 48 hrs by trypan blue dye exclusion assay; assay type: functional; settings: U-251, 48 h
[4] = Cytotoxicity against human Hs 578T cells after 48 hrs by trypan blue dye exclusion assay; assay type: functional
NCI-H460 = assay: Cytotoxicity against human NCI-H460 cells after 48 hrs by trypan blue dye exclusion assay; assay type: functional; settings: NCI-H460, 48 h
NCI-H322M = assay: Cytotoxicity against human NCI-H322M cells after 48 hrs by trypan blue dye exclusion assay; assay type: functional
UACC-257 = assay: Cytotoxicity against human UACC257 cells after 48 hrs by trypan blue dye exclusion assay; assay type: functional; settings: UACC-257, 48 h
SW-620 = assay: Cytotoxicity against human SW620 cells after 48 hrs by trypan blue dye exclusion assay; assay type: functional; settings: SW-620, 48 h
HCT-116 = assay: Cytotoxicity against human HCT116 cells after 48 hrs by trypan blue dye exclusion assay; assay type: functional; settings: HCT-116, 48 h
TK-10 = assay: Cytotoxicity against human TK10 cells after 48 hrs by trypan blue dye exclusion assay; assay type: functional; settings: TK-10, 48 h
EKVX = assay: Cytotoxicity against human EKVX cells after 48 hrs by trypan blue dye exclusion assay; assay type: functional
MDA-MB-231 = assay: Cytotoxicity against human MDA-MB-231 cells after 48 hrs by trypan blue dye exclusion assay; assay type: functional; settings: MDA-MB-231, 48 h
M14 = assay: Cytotoxicity against human M14 cells after 48 hrs by trypan blue dye exclusion assay; assay type: functional; settings: M14, 48 h
PC-3 = assay: Cytotoxicity against human PC3 cells after 48 hrs by trypan blue dye exclusion assay; assay type: functional; settings: PC-3, 48 h
HCT-15 = assay: Cytotoxicity against human HCT15 cells after 48 hrs by trypan blue dye exclusion assay; assay type: functional; settings: HCT-15, 48 h
786-0 = assay: Cytotoxicity against human 786-0 cells after 48 hrs by trypan blue dye exclusion assay; assay type: functional; settings: 786-0, 48 h
CCRF-CEM = assay: Cytotoxicity against human CCRF-CEM cells after 48 hrs by trypan blue dye exclusion assay; assay type: functional
HCC 2998 = assay: Cytotoxicity against human HCC2998 cells after 48 hrs by trypan blue dye exclusion assay; assay type: functional; settings: HCC 2998, 48 h
COLO 205 = assay: Cytotoxicity against human COLO205 cells after 48 hrs by trypan blue dye exclusion assay; assay type: functional; settings: COLO 205, 48 h
LOX IMVI = assay: Cytotoxicity against human LOXIMVI cells after 48 hrs by trypan blue dye exclusion assay; assay type: functional
SF-539 = assay: Cytotoxicity against human SF539 cells after 48 hrs by trypan blue dye exclusion assay; assay type: functional; settings: SF-539, 48 h
MDA-MB-435 = assay: Cytotoxicity against human MDA-MB-435 cells after 48 hrs by trypan blue dye exclusion assay; assay type: functional; settings: MDA-MB-435, 48 h
MDA-MB-468 = assay: Cytotoxicity against human MDA-MB-468 cells after 48 hrs by trypan blue dye exclusion assay; assay type: functional; settings: MDA-MB-468, 48 h

## COc1cc([C@H]2C3=C(COC3=O)Nc3cc4c(cc32)OCO4)cc2c1OCO2
UACC-62
  GI50: 48 nM
NCI/ADR-RES
  GI50: 103 nM
KM12
  GI50: 36.2 nM
OVCAR-8
  GI50: 232 nM
HOP-92
  GI50: 136 nM
OVCAR-4
  GI50: 98.4 nM
Malme-3M
  GI50: > 100000 nM
SR
  GI50: 60.1 nM
SK-MEL-28
  GI50: 61 nM
SN12C
  GI50: 350 nM
HT-29
  GI50: 1250 nM
ACHN
  GI50: 357 nM
SNB-75
  GI50: 26.7 nM
IGROV-1
  GI50: 185 nM
HL-60(TB)
  GI50: 99 nM
MCF7
  GI50: 37.2 nM
A549
  GI50: 306 nM
OVCAR-5
  GI50: 1090 nM
SF-268
  GI50: 108 nM
RXF 393
  GI50: 30.3 nM
SK-MEL-2
  GI50: 207 nM
SK-MEL-5
  GI50: 101 nM
RPMI-8226
  GI50: 93.1 nM
Paracentrotus lividus [1]
  Activity: inactive
BT-549
  GI50: 338 nM
NCI-H23
  GI50: 142 nM
OVCAR-3
  GI50: 31.9 nM
Paracentrotus lividus [2]
  Activity: inactive
SF-295
  GI50: 29 nM
CAKI-1
  GI50: 128 nM
A498
  GI50: 30.9 nM
DU-145
  GI50: 173 nM
NCI-H226
  GI50: 4590 nM
SNB-19
  GI50: 362 nM
SK-OV-3
  GI50: 155 nM
NCI-H522
  GI50: 144 nM
UO-31
  GI50: 1380 nM
Paracentrotus lividus [3]
  Activity: inactive
MOLT-4
  GI50: 360 nM
U-251
  GI50: 108 nM
[4]
  GI50: 37.8 nM
NCI-H460
  GI50: 690 nM
NCI-H322M
  GI50: 142 nM
UACC-257
  GI50: 74.1 nM
SW-620
  GI50: 98.2 nM
HCT-116
  GI50: 236 nM
TK-10
  GI50: 115 nM
EKVX
  GI50: 320 nM
MDA-MB-231
  GI50: 308 nM
M14
  GI50: 228 nM
PC-3
  GI50: 80.3 nM
HCT-15
  GI50: 256 nM
786-0
  GI50: 321 nM
CCRF-CEM
  GI50: 120 nM
HCC 2998
  GI50: 387 nM
COLO 205
  GI50: 186 nM
LOX IMVI
  GI50: 117 nM
SF-539
  GI50: 48.3 nM
MDA-MB-435
  GI50: 26.9 nM
MDA-MB-468
  GI50: 119 nM
